Patent US20050288355A1, “Combination therapy wherein a serotonin reuptake inhibitor is used” (priority 2002, published 2005)

Experiments:
[1] = test system: 5-HT levels in rat ventral hippocampus; test: Microdialysis of brain serotonin levels, ventral hippocampus; format: in vivo
Protocol: (§1) Male albino rats of a Wistar-derived strain (285-320 g; Harlan, Zeist, The Netherlands) were used for the experiments. Upon surgery, rats were housed individually in plastic cages (35×35×40 cm), and had free access to food and water. Animals were kept on a 12 h light schedule (light on 7:00 a.m.). The experiments are concordant with the declarations of Helsinki and were approved by the animal care committee of the faculty of mathematics and natural science of the University of Groningen.
Microdialysis of brain serotonin levels was performed using home made I-shaped probes, made of polyacrylonitrile/sodium methyl sulfonate copolymer dialysis fiber (i.d. 220 μn, o.d. […], AN 69, Hospal, Italy). Preceding surgery rats were anaesthetised using isoflurane (O2/N2O; 300/300 ml/min). Lidocaine-HCl, 10% (m/v) was used for local anaesthesia. Rats were placed in a stereotaxic frame (Kopf, USA), and probes were inserted into Ventral Hippcampus (V. Hippo, L+4.8 mm, IA: +3.7 mm, V: −8.0 mm) and median prefrontal cortex (PFC, L −0.9 mm; AP: +3.5 mm relative to bregma; V: −6.0 mm (Paxinos and Watson, 1982). After insertion, probes were secured with dental cement.
Rats were allowed to recover for at least 24 h. Probes were perfused with artificial cerebrospinal fluid containing 147 mM NaCl, 3.0 mM KCl, 1.2 mM CaCl2, and 1.2 mM MgCl2, at a flow-rate of 1.5 μl/min (Harvard apparatus, South Natick, Ma., USA). 15 minute microdialysis samples were collected in HPLC vials containing 7.5 μl 0.02 M acetic acid for serotonin analysis.
(§2) Twenty-μl microdialysate samples were injected via an autoinjector (CMA/200 refrigerated microsampler, CMA, Sweden) onto a 100×2.0 mm C18 Hypersil 3 μm column (Bester, Amstelveen, the Netherlands) and separated with a mobile phase consisting of 5 g/L di-ammoniumsulfate, 500 mg/L EDTA, 50 mg/L heptane sulphonic acid, 4% methanol v/v, and 30 μl/L of triethylamine, pH 4.65 at a flow of 0.4 ml/min (Shimadzu LC-10 AD). 5-HT was detected amperometrically at a glassy carbon electrode at 500 mV vs Ag/AgCl (Antec Leyden, Leiden, The Netherlands). The detection limit was 0.5 fmol 5-HT per 20 μl sample (signal to noise ratio 3).
Four consecutive microdialysis samples with less then 20% variation were taken as control and set at 100%. Data are presented as percentages of control level (mean±S.E.M.) in time. Statistical analysis was performed using Sigmastat for Windows (SPSS, Jandel Corporation). Treatments were compared versus controls using two way analysis of variance (ANOVA) for repeated measurements, followed by Student Newman Keuls test. Level of significance level was set at p<0.05.

[2] = test system: 5-HT levels in rat prefrontal cortex; test: Microdialysis of brain serotonin levels, prefrontal cortex; format: in vivo; conditions: PFC; 2 mg/kg s.c. co-administered with citalopram 10 μmol/kg s.c.; P=0.048
Protocol: as §1
Microdialysis of brain serotonin levels was performed using home made I-shaped probes, made of polyacrylonitrile/sodium methyl sulfonate copolymer dialysis fiber (i.d. 220 μn, o.d. 0.31 μm, AN 69, Hospal, Italy). Preceding surgery rats were anaesthetised using isoflurane (O2/N2O; 300/300 ml/min). Lidocaine-HCl, 10% (m/v) was used for local anaesthesia. […]
as §2, with “The detection limit was 0.5 fmol 5-HT per 20 μl sample (signal to noise ratio 3).” left out

[3] = test system: 5-HT in the raphe nuclei / forebrain; conditions: cited from earlier work

## NCC(O)(CS(=O)(=O)O)c1ccc(Cl)cc1 (centres unmarked) [2-hydroxysaclofen]
[1]; 2 mg/kg s.c. simultaneous with citalopram 10 μmol/kg s.c., P=0.046
  effects on 5-HT levels with citalopram: augmented effects on 5-HT levels

## NCCCP(=O)(O)CC1CCCCC1 [CGP 46381]
[1]; 0.5 mg/kg co-administered with citalopram 10 μmol/kg, treatment p=0.04
  response on 5-HT levels with citalopram: augmented response
[1]; 2 mg/kg co-administered with citalopram 10 μmol/kg, treatment p=0.10, treatment vs. time 0.001
  response on 5-HT levels with citalopram: augmented response
[1]; 10 mg/kg s.c., without citalopram
  effect on 5-HT levels, given alone: did not show any effect

## NCC(CP(=O)(O)O)c1ccc(Cl)cc1 (centres unmarked) [Phaclofen]
[1]; 2 mg/kg s.c. co-administered with citalopram 10 μmol/kg s.c., P=0.021, t=75 to t=135
  5-HT levels compared to citalopram treatment alone: enhanced levels of 5-HT
[1]; administered either centrally into the hippocampus or systemically, with citalopram
  effects of citalopram on extracellular 5-HT levels: significantly increase
[1]; local infusion (50 μM) in ventral hippocampus, P=0.26
  effect on basal levels of 5-HT: did not have any effect
[1]; local phaclofen 50 μM, citalopram 10 μmol/kg s.c., P=0.0068, significant from t=75 to 150 min
  5-HT levels after systemic citalopram during local administration: augmented levels of 5-HT
[2]
  5-HT levels compared to citalopram treatment alone: enhanced levels of 5-HT
[3]; raphe or forebrain
  effect on 5-HT levels when administered by itself: devoid of effect

## NCC(CC(=O)O)c1ccc(Cl)cc1 (centres unmarked) [baclofen]
[3]; forebrain
  5-HT in the forebrain: reduction
[3]; raphe
  5-HT in the raphe: decrease

## CN1CCc2cc3c(cc2[C@H]1[C@@H]1OC(=O)c2c1ccc1c2OCO1)OCO3 [bicuculline, (+)-Bicuculline]
[1]; local administration of 50 μM in ventral hippocampus, significant from t=45 to 90 min
  increase of serotonin levels: about 150%

## NCc1cc(=O)[nH]o1 [muscimol]
[3]; raphe nuclei
  5-HT cell activity & 5-HT release: reduced
